# Paper PMC11766267 (International Journal of Molecular Sciences, 2025)
# Several values for one entry are separate records, joined by “and”; a condition that tells them apart may be missing. Equal entries are not always repeated. Where two headings read alike, the source gives them in different places.
# How the values were obtained:
# [1] = test system: HCT-116, MDA-MB-231, HeLa, and MCF-7; assay: MTT cytotoxicity assay, ranges stated over several cell lines; type: cell-based; conditions: Homo sapiens, range over the compounds named
# Method: Subsequently, 100 µL of dimethyl sulfoxide was introduced to dissolve the insoluble formazan.
# [2] = target: T1, aromatase (CYP19A, EC 1.14.14.14) (Homo sapiens, UniProt P11511); assay: biochemical; conditions: individual Data 1-3
# T1 construct: Microsomal samples were isolated from tissue using the Microsome Isolation Kit; tissue BioVision K983-100; host or cells: microsomes from an unnamed tissue
# T1 sequence (P11511 1-503): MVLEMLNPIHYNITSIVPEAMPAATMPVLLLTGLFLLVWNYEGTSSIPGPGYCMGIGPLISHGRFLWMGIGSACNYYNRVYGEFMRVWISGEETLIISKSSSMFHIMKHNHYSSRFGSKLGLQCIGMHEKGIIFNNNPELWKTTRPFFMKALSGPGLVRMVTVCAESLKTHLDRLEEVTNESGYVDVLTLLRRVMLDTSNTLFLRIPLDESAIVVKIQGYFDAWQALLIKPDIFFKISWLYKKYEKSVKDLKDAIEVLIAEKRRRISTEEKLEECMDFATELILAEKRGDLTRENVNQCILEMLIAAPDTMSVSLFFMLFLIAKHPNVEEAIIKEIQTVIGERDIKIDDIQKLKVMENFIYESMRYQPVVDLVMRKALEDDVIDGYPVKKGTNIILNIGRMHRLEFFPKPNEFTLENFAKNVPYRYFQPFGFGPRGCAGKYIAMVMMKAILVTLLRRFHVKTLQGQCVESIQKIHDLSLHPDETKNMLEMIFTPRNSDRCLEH
# Method: In vitro aromatase assay was performed using the BioVision Aromatase Activity Assay Kit (Catalog # K983-100; BioVision, Milpitas, CA, USA). Microsomal samples were isolated from tissue using the Microsome Isolation Kit (Cat. #K249; BioVision, Milpitas, CA, USA). A standard curve was established by diluting the Fluorescence Standard provided in the kit to create a 0.5 pmole/µL solution, followed by setting up a series of standards in a white 96-well plate, adjusting the total volume to 100 µL with aromatase assay buffer. For each reaction well, a 2X concentrated mix was prepared by adding 2–48 µL of the microsomal sample and 2 µL of the NADPH generating system, bringing the final volume to 50 µL with aromatase assay buffer. Background controls (no enzyme) and positive controls (with recombinant aromatase) were included. […] After a 10 min incubation at 37 °C, 30 µL of the substrate/NADP+ mixture was added to each well, and fluorescence was measured immediately in kinetic mode for 60 min at 37 °C. Finally, the change in fluorescence was calculated to determine the specific activity of aromatase using the formula provided in the kit protocol.
# MCF-7 = assay: In vitro anti-estrogenic activity assay, MCF-7
# MCF-7a = assay: In vitro anti-estrogenic activity assay, MCF-7a
# EGFR = EGFR (Homo sapiens, UniProt P00533); assay: In vitro protein kinase inhibition assay (ELISA kit), EGFR
# HER2 = HER2 (Homo sapiens, UniProt P04626); assay: In vitro protein kinase inhibition assay (ELISA kit), HER2
# CDK2 = CDK2 (Homo sapiens, UniProt P24941); assay: In vitro protein kinase inhibition assay (ELISA kit), CDK2
# VEGFR-2 = VEGFR-2 (Homo sapiens, UniProt P35968); assay: In vitro protein kinase inhibition assay (ELISA kit), VEGFR-2
# [3] = cell count relative to the control (17β-E2)
# Sequence of EGFR (P00533 25-1210): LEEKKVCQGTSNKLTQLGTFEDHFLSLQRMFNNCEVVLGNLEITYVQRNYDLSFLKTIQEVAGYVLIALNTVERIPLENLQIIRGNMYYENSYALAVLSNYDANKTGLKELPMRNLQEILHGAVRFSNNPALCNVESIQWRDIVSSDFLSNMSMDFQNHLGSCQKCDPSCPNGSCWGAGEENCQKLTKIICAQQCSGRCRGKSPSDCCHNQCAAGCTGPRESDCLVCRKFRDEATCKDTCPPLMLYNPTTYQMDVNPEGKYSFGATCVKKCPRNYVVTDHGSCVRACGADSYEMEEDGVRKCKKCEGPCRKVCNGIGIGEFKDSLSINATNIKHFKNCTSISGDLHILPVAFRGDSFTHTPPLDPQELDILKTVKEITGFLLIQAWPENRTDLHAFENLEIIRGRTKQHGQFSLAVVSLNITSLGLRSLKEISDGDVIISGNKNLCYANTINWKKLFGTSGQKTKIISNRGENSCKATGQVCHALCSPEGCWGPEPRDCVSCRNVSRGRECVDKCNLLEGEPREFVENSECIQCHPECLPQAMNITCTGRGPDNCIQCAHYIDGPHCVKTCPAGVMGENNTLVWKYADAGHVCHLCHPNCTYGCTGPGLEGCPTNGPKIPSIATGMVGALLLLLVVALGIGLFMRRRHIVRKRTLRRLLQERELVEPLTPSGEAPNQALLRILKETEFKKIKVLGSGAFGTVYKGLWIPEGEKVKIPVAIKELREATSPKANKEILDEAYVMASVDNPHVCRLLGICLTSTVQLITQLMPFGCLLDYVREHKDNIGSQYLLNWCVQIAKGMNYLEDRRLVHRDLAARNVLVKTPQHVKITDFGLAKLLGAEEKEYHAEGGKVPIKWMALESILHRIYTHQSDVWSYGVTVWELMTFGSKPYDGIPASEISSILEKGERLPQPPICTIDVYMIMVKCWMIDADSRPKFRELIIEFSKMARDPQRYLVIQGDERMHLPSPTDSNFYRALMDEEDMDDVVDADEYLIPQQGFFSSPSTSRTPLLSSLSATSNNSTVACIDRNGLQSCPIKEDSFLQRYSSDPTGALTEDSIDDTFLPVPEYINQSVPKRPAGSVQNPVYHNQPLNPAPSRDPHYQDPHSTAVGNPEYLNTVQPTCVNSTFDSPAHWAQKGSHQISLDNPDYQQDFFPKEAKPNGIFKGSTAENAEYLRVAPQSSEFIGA
# Sequence of HER2 (P04626 23-1255): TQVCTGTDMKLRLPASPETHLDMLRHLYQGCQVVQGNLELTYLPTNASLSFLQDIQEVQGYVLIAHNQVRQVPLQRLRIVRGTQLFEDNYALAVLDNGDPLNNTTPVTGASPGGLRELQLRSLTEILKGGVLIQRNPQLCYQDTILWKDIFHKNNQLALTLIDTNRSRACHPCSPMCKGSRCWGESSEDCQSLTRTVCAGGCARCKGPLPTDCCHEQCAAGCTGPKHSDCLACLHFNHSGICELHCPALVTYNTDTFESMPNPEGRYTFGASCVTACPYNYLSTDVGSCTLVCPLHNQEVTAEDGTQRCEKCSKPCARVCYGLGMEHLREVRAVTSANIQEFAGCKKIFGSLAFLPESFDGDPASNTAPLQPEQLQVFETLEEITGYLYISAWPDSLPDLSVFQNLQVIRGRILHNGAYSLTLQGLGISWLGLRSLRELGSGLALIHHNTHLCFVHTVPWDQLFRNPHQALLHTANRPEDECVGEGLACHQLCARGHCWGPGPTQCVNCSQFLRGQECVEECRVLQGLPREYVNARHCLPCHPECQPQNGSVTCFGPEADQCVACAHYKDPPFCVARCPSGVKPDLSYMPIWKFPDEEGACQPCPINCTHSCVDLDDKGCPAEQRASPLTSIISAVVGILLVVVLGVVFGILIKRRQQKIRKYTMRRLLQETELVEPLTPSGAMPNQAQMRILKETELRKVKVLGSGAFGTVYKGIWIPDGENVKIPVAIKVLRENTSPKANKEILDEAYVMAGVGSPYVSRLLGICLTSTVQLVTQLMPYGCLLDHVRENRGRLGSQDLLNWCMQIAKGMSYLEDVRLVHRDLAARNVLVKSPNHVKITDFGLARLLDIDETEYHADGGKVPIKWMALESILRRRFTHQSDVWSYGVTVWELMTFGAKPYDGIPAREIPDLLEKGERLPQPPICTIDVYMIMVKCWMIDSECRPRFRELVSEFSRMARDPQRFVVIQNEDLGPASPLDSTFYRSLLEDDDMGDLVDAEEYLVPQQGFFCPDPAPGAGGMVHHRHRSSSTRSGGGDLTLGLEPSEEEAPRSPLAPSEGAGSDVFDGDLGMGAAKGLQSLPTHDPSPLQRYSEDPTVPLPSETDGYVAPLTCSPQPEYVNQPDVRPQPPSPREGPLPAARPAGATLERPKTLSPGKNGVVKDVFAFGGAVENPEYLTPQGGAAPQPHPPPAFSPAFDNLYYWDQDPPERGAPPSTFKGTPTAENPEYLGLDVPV
# Sequence of VEGFR-2 (P35968 20-1356): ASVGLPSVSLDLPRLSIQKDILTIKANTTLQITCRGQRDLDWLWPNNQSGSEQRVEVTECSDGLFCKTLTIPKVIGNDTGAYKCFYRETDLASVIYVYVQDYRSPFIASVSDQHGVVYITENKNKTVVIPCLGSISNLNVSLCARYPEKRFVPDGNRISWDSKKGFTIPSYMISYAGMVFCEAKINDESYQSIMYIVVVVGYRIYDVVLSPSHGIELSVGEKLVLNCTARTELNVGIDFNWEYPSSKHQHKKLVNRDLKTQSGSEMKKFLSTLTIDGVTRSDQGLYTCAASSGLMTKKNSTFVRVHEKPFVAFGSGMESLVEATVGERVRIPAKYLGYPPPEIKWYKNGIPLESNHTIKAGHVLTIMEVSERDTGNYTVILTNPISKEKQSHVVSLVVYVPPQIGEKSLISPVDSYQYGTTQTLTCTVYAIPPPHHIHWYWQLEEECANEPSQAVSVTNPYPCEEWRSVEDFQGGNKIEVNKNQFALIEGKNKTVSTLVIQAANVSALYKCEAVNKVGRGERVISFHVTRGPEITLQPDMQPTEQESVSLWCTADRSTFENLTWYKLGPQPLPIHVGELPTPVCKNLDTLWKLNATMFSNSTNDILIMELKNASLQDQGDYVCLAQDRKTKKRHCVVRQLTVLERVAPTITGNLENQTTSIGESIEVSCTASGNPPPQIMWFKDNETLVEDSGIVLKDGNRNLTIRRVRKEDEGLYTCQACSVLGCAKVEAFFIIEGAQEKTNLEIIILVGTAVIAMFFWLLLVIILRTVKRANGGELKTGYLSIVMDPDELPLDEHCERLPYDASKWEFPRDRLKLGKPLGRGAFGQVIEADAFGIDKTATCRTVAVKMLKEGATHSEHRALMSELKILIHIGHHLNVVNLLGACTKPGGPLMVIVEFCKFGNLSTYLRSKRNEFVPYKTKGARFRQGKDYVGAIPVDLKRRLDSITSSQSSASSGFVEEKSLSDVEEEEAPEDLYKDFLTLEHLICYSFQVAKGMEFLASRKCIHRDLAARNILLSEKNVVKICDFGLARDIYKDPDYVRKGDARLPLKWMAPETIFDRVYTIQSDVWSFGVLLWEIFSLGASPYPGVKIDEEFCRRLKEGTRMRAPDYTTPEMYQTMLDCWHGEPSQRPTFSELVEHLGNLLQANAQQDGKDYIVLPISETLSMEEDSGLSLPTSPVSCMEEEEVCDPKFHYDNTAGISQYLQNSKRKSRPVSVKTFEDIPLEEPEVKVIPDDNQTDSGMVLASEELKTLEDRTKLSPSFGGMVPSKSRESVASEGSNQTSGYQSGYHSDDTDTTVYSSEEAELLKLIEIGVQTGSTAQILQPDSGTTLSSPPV
compound,measurement,setting,value
"O=C(/C=C/c1ccccc1)c1ccccc1 [Compound 4a, (E)-Chalcone]",IC50,"[1]; HCT-116 and HeLa, read-out: IC50 values, range against HCT-116 and HeLa",6.59 to 22.6 µM
same,IC50,"[1]; MDA-MB-231 and MCF-7, read-out: IC50 values, range against MDA-MB-231 and MCF-7",2.08 to 13.6 µM
same,Inhibition (%) Aromatase,[2]; 0.01 µM,19.87% and 20.56%
same,Inhibition (%) Aromatase,[2]; 0.1 µM,28.65% and 29.76%
same,Inhibition (%) Aromatase,[2]; 1 µM,63% and 62.76%
same,Inhibition (%) Aromatase,[2]; 10 µM,82.87% and 83.45%
same,Inhibition (%) Aromatase,[2]; 100 µM,92.23% and 94%
same,inhibition at 0.01 µM,"[2]; read-out: Inhibition (%) Aromatase, 0.01 µM",20%
same,inhibition at 0.1 µM,"[2]; read-out: Inhibition (%) Aromatase, 0.1 µM",29%
same,inhibition at 1 µM,"[2]; read-out: Inhibition (%) Aromatase, 1 µM",64%
same,inhibition at 10 µM,"[2]; read-out: Inhibition (%) Aromatase, 10 µM",83%
same,inhibition at 100 µM,"[2]; read-out: Inhibition (%) Aromatase, 100 µM",93%
same,Cell Proliferation MCF-7 %,MCF-7; [3],79%
same,Cell Proliferation MCF-7 Cell Count,MCF-7; mean ± SD of triplicate,"14,553 ± 518"
same,Reduction of growth/cell count (inhibition) in MCF-7,MCF-7; relative to control,21%
same,Cell Proliferation MCF-7a %,MCF-7a; [3],102%
same,Cell Proliferation MCF-7a Cell Count,MCF-7a; mean ± SD of triplicate,"21,155 ± 611"
same,Inhibition in MCF-7a,MCF-7a; relative to control,no inhibition
same,IC50,EGFR,0.367 ± 0.012 µM
same,Inhibition (%) EGFR,"EGFR; 0.01 µM, individual Data 1-3",10.8% and 13.9%
same,Inhibition (%) EGFR,"EGFR; 0.1 µM, individual Data 1-3",34.2% and 37.1%
same,Inhibition (%) EGFR,"EGFR; 1 µM, individual Data 1-3",68.2% and 66.7%
same,Inhibition (%) EGFR,"EGFR; 10 µM, individual Data 1-3",83.2% and 86.9%
same,Inhibition (%) EGFR,"EGFR; 100 µM, individual Data 1-3",93.9% and 94.2%
same,inhibition at 0.01 µM,"EGFR; read-out: Inhibition (%) EGFR, 0.01 µM, individual Data 1-3",12.3%
same,inhibition at 0.1 µM,"EGFR; read-out: Inhibition (%) EGFR, 0.1 µM, individual Data 1-3",35.8%
same,inhibition at 1 µM,"EGFR; read-out: Inhibition (%) EGFR, 1 µM, individual Data 1-3",69.9%
same,inhibition at 10 µM,"EGFR; read-out: Inhibition (%) EGFR, 10 µM, individual Data 1-3",85.6%
same,inhibition at 100 µM,"EGFR; read-out: Inhibition (%) EGFR, 100 µM, individual Data 1-3",95.1%
same,IC50,HER2,0.691 ± 0.027 µM
same,Inhibition (%) Her2,"HER2; 0.01 µM, individual Data 1-3",10.6% and 14.2%
same,Inhibition (%) Her2,"HER2; 0.1 µM, individual Data 1-3",21.8% and 24.9%
same,Inhibition (%) Her2,"HER2; 1 µM, individual Data 1-3",60.9% and 59.5%
same,Inhibition (%) Her2,"HER2; 10 µM, individual Data 1-3",78% and 81.2%
same,Inhibition (%) Her2,"HER2; 100 µM, individual Data 1-3",89.9% and 93.1%
same,inhibition at 0.01 µM,"HER2; read-out: Inhibition (%) Her2, 0.01 µM, individual Data 1-3",12.3%
same,inhibition at 0.1 µM,"HER2; read-out: Inhibition (%) Her2, 0.1 µM, individual Data 1-3",23.8%
same,inhibition at 1 µM,"HER2; read-out: Inhibition (%) Her2, 1 µM, individual Data 1-3",62.2%
same,inhibition at 10 µM,"HER2; read-out: Inhibition (%) Her2, 10 µM, individual Data 1-3",79.1%
same,inhibition at 100 µM,"HER2; read-out: Inhibition (%) Her2, 100 µM, individual Data 1-3",91%
same,IC50,CDK2,0.84 ± 0.026 µM
same,Inhibition (%) CDK2,"CDK2; 0.01 µM, individual Data 1-3",9.7% and 12%
same,Inhibition (%) CDK2,"CDK2; 0.1 µM, individual Data 1-3",25.6% and 28.78%
same,Inhibition (%) CDK2,"CDK2; 1 µM, individual Data 1-3",53.8% and 52.78%
same,Inhibition (%) CDK2,"CDK2; 10 µM, individual Data 1-3",72.98% and 76%
same,Inhibition (%) CDK2,"CDK2; 100 µM, individual Data 1-3",88.7% and 92.7%
same,inhibition at 0.01 µM,"CDK2; read-out: Inhibition (%) CDK2, 0.01 µM, individual Data 1-3",11.8%
same,inhibition at 0.1 µM,"CDK2; read-out: Inhibition (%) CDK2, 0.1 µM, individual Data 1-3",27.7%
same,inhibition at 1 µM,"CDK2; read-out: Inhibition (%) CDK2, 1 µM, individual Data 1-3",54%
same,inhibition at 10 µM,"CDK2; read-out: Inhibition (%) CDK2, 10 µM, individual Data 1-3",74.1%
same,inhibition at 100 µM,"CDK2; read-out: Inhibition (%) CDK2, 100 µM, individual Data 1-3",90.3%
same,IC50,VEGFR-2,1.55 ± 0.053 µM
same,Inhibition (%) VEGFR2,"VEGFR-2; 0.01 µM, individual Data 1-3",4.43% and 2.43% and 5.78%
same,Inhibition (%) VEGFR2,"VEGFR-2; 0.1 µM, individual Data 1-3",19.78% and 23.4%
same,Inhibition (%) VEGFR2,"VEGFR-2; 1 µM, individual Data 1-3",40.5% and 38.5%
same,Inhibition (%) VEGFR2,"VEGFR-2; 10 µM, individual Data 1-3",69% and 76.6%
same,Inhibition (%) VEGFR2,"VEGFR-2; 100 µM, individual Data 1-3",86.5% and 92.5%
same,inhibition at 0.1 µM,"VEGFR-2; read-out: Inhibition (%) VEGFR2, 0.1 µM, individual Data 1-3",21.6%
same,inhibition at 1 µM,"VEGFR-2; read-out: Inhibition (%) VEGFR2, 1 µM, individual Data 1-3",43.5%
same,inhibition at 10 µM,"VEGFR-2; read-out: Inhibition (%) VEGFR2, 10 µM, individual Data 1-3",73.3%
same,inhibition at 100 µM,"VEGFR-2; read-out: Inhibition (%) VEGFR2, 100 µM, individual Data 1-3",89.2%
